Key:
Conditions in all cases: 48 h
[1] = tested on: SEM cells; assay: cell viability relative to DMSO control; higher = less cytotoxic
How it was run: (§1)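 NOMO1 or SEM (500 cells/well) or P12-Ichikawa (1000 cells/well) leukemia cells were adapted for at least four passages in each medium. They were seeded in 1536-well plates (5 μl) and pin-dosed with library compounds in DMSO over an 11-point threefold series, 47 μM to 0.79 nM. CellTiter-Glo One luminescence was read after 48 h at 37°C. Viability is the per-plate percentage relative to DMSO wells, with cell-free wells as background.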

[2] = tested on: NOMO1; assay: as above
How it was run: as §1

[3] = tested on: P12-Ichikawa; assay: as above
How it was run: as §1

[4] = tested on: P12-Ichikawa; assay: AUC of viability dose-response curve (% viability x log10 dose units); higher = less sensitive
How it was run: (§2)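 In 1536-well plates, leukemia cells adapted to each medium (500 or 1000 cells/well) were exposed for 48 h at 37°C to library compounds in DMSO across 11 threefold doses, 47 μM down to 0.79 nM. Viability was read by CellTiter-Glo One luminescence and normalised per plate to DMSO and cell-free wells. A four-parameter log-logistic fit over log10 doses was integrated by trapezoidal rule. This yielded the area under the curve, with over-full-viability curves scaled and quality-control failures dropped.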

[5] = tested on: SEM cells; assay: as above
How it was run: as §2

[6] = tested on: NOMO1; assay: as above
How it was run: as §2

CCc1cc2c(cc1N1CCC(N3CCOCC3)CC1)C(C)(C)c1[nH]c3cc(C#N)ccc3c1C2=O
cell viability [%]
Conditions | [1] | [2] | [3]
HPLM + 10% dialyzed FBS, 0.000781 µM | 60.6 | 83.9 | 100
HPLM + 10% dialyzed FBS, 0.00234 µM | 55 | 68.5 | 99.5
HPLM + 10% dialyzed FBS, 0.00702 µM | 70.7 | 94.7 | 110
HPLM + 10% dialyzed FBS, 0.0211 µM | 102 | 117 | 130
HPLM + 10% dialyzed FBS, 0.0632 µM | 122 | 135 | 138
HPLM + 10% dialyzed FBS, 0.19 µM | 121 | 151 | 130
HPLM + 10% dialyzed FBS, 0.569 µM | 114 | 134 | 131
HPLM + 10% dialyzed FBS, 1.71 µM | 99 | 121 | 121
HPLM + 10% dialyzed FBS, 5.12 µM | 95.6 | 105 | 116
HPLM + 10% dialyzed FBS, 15.4 µM | 70.2 | 102 | 115
HPLM + 10% dialyzed FBS, 46.1 µM | 28.1 | 68.3 | 65.3
RPMI 5 mM glucose + 10% FBS, 0.000781 µM | 53.8 | 91.1 | 73.7
RPMI 5 mM glucose + 10% FBS, 0.00234 µM | 49.4 | 83.2 | 73.3
RPMI 5 mM glucose + 10% FBS, 0.00702 µM | 71.1 | 102 | 97.2
RPMI 5 mM glucose + 10% FBS, 0.0211 µM | 77.1 | 119 | 134
RPMI 5 mM glucose + 10% FBS, 0.0632 µM | 107 | 126 | 126
RPMI 5 mM glucose + 10% FBS, 0.19 µM | 107 | 132 | 124
RPMI 5 mM glucose + 10% FBS, 0.569 µM | 103 | 124 | 130
RPMI 5 mM glucose + 10% FBS, 1.71 µM | 96.7 | 112 | 100
RPMI 5 mM glucose + 10% FBS, 5.12 µM | 88.3 | 117 | 110
RPMI 5 mM glucose + 10% FBS, 15.4 µM | 46.7 | 114 | 107
RPMI 5 mM glucose + 10% FBS, 46.1 µM | 12.8 | 58.8 | 102
RPMI 5 mM glucose + 10% dialyzed FBS, 0.000781 µM | 60.3 | 80.3 | 86.2
RPMI 5 mM glucose + 10% dialyzed FBS, 0.00234 µM | 54.3 | 73.9 | 81.9
RPMI 5 mM glucose + 10% dialyzed FBS, 0.00702 µM | 73.8 | 71.7 | 108
RPMI 5 mM glucose + 10% dialyzed FBS, 0.0211 µM | 97.7 | 107 | 127
RPMI 5 mM glucose + 10% dialyzed FBS, 0.0632 µM | 111 | 125 | 136
RPMI 5 mM glucose + 10% dialyzed FBS, 0.19 µM | 129 | 133 | 128
RPMI 5 mM glucose + 10% dialyzed FBS, 0.569 µM | 103 | 120 | 125
RPMI 5 mM glucose + 10% dialyzed FBS, 1.71 µM | 114 | 111 | 118
RPMI 5 mM glucose + 10% dialyzed FBS, 5.12 µM | 108 | 115 | 109
RPMI 5 mM glucose + 10% dialyzed FBS, 15.4 µM | 70.8 | 110 | 122
RPMI 5 mM glucose + 10% dialyzed FBS, 46.1 µM | 20.3 | 52.1 | 96.5

[4]
Conditions | AUC of viability dose-response curve
HPLM + 10% dialyzed FBS | 464
RPMI 5 mM glucose + 10% FBS | 443
RPMI 5 mM glucose + 10% dialyzed FBS | 451

O=C1NCCc2[nH]c(-c3ccncc3)cc21
[1], HPLM + 10% dialyzed FBS
Conditions | cell viability [%]
0.000781 µM | 106
0.00234 µM | 118
0.00702 µM | 119
0.0211 µM | 128
0.0632 µM | 133
0.19 µM | 140
0.569 µM | 147
1.71 µM | 149
5.12 µM | 149
15.4 µM | 41.2
46.1 µM | 8.55

AUC of viability dose-response curve
Conditions | [4] | [5] | [6]
HPLM + 10% dialyzed FBS | 433 | 421 | 428
RPMI 5 mM glucose + 10% FBS | 428 | 423 | 439
RPMI 5 mM glucose + 10% dialyzed FBS | 426 | 430 | 431

CC(C)(O)CCc1ccc(OCc2cc(-c3cccc(OC(F)F)c3)c3ncccc3c2)cc1
[1], HPLM + 10% dialyzed FBS
Conditions | cell viability [%]
0.000781 µM | 96
0.00234 µM | 98.7
0.00702 µM | 108
0.0211 µM | 118
0.0632 µM | 113
0.19 µM | 126
0.569 µM | 115
1.71 µM | 127
5.12 µM | 137
15.4 µM | 119
46.1 µM | 134

AUC of viability dose-response curve
Conditions | [4] | [5] | [6]
HPLM + 10% dialyzed FBS | 466 | 435 | 468
RPMI 5 mM glucose + 10% FBS | 457 | 445 | 457
RPMI 5 mM glucose + 10% dialyzed FBS | 456 | 469 | 460

Cc1nc(NC(=O)N2CCC[C@H]2C(N)=O)sc1-c1csc(C(C)(C)C)n1
AUC of viability dose-response curve
Conditions | [4] | [5] | [6]
HPLM + 10% dialyzed FBS | 331 | 309 | 323
RPMI 5 mM glucose + 10% FBS | 334 | 302 | 346
RPMI 5 mM glucose + 10% dialyzed FBS | 350 | 312 | 335

C[C@H](NCc1ccc2c(c1)nc(NC(=O)c1ccc(-c3cn[nH]c3)s1)n2CCc1ccccc1)C(C)(C)C
AUC of viability dose-response curve
Conditions | [4] | [5] | [6]
HPLM + 10% dialyzed FBS | 410 | 248 | 373
RPMI 5 mM glucose + 10% FBS | 403 | 242 | 404
RPMI 5 mM glucose + 10% dialyzed FBS | 412 | 224 | 396

C=CCNc1c(O)cc2c(O)c1C[C@@H](C)C[C@H](OC)[C@H](O)[C@@H](C)/C=C(/C)[C@H](OC(N)=O)[C@@H](OC)/C=C\C=C(\C)C(=O)N2
AUC of viability dose-response curve
Conditions | [4] | [5] | [6]
HPLM + 10% dialyzed FBS | 428 | 336 | 419
RPMI 5 mM glucose + 10% FBS | 398 | 324 | 411
RPMI 5 mM glucose + 10% dialyzed FBS | 410 | 305 | 401

C[C@@H]1C/C=C/C=C/C=C/C=C/[C@@H](O[C@@H]2O[C@H](C)[C@@H](O)[C@H](N)[C@@H]2O)C[C@@H]2O[C@](O)(C[C@@H](O)C[C@@H]3O[C@H]3/C=C/C(=O)O1)C[C@H](O)[C@H]2C(=O)O
[1], HPLM + 10% dialyzed FBS
Conditions | cell viability [%]
0.000781 µM | 108
0.00234 µM | 120
0.00702 µM | 103
0.0211 µM | 129
0.0632 µM | 131
0.19 µM | 119
0.569 µM | 124
1.71 µM | 106
5.12 µM | 115
15.4 µM | 120
46.1 µM | 114

AUC of viability dose-response curve
Conditions | [4] | [5] | [6]
HPLM + 10% dialyzed FBS | 439 | 475 | 449
RPMI 5 mM glucose + 10% FBS | 466 | 461 | 460
RPMI 5 mM glucose + 10% dialyzed FBS | 461 | 462 | 457

O=C(/C=C/c1ccc(CN(CCO)CCc2c[nH]c3ccccc23)cc1)NO
AUC of viability dose-response curve
Conditions | [4] | [5] | [6]
HPLM + 10% dialyzed FBS | 275 | 262 | 296
RPMI 5 mM glucose + 10% FBS | 271 | 261 | 295
RPMI 5 mM glucose + 10% dialyzed FBS | 277 | 269 | 303

CC(C)(O)[C@H]1CC[C@@](C)([C@H]2[C@@H](O)C[C@@]3(C)[C@@H]4C[C@H](O[C@@H]5O[C@H](CO)[C@@H](O)[C@H](O)[C@H]5O)[C@H]5C(C)(C)[C@@H](O[C@@H]6OC[C@@H](O)[C@H](O)[C@H]6O)CC[C@@]56C[C@@]46CC[C@]23C)O1
cell viability [%], [1]
Conditions | HPLM + 10% dialyzed FBS | RPMI 5 mM glucose + 10% FBS
0.000781 µM | 118 | 119
0.00234 µM | 118 | 123
0.00702 µM | 121 | 133
0.0211 µM | 124 | 120
0.0632 µM | 128 | 124
0.19 µM | 126 | 123
0.569 µM | 129 | 130
1.71 µM | 117 | 121
5.12 µM | 89.2 | 108
15.4 µM | 109 | 105
46.1 µM | 106 | 128

AUC of viability dose-response curve
Conditions | [4] | [5] | [6]
HPLM + 10% dialyzed FBS | 456 | 454 | 464
RPMI 5 mM glucose + 10% FBS | 451 | 465 | 446
RPMI 5 mM glucose + 10% dialyzed FBS | 450 | 466 | 449

COc1ccc(COc2cc3oc(=O)c4cc(C(C)O)ccc4c3cc2OC)cc1 (stereo not drawn)
AUC of viability dose-response curve
Conditions | [4] | [5] | [6]
HPLM + 10% dialyzed FBS | 457 | 451 | 446
RPMI 5 mM glucose + 10% FBS | 444 | 450 | 449
RPMI 5 mM glucose + 10% dialyzed FBS | 434 | 461 | 455

— the supplement of paper PMC11451515
